In patent US20250361243A1, “Compounds and Pharmaceutical Compositions Useful for Managing Sickle Cell Disease and Conditions Related Thereto” (Emory University, priority 2022, published 2025):
Like-named read-outs stand apart in the source and are kept apart here.

Key:
Format in all cases: cell-based
RBCs = test: Anti-sickling activity normalized to 5 mM 5-HMF (Table 2); settings: for EC50: read-out: EC50 for anti-sickling activity (uM, normalized to positive control of 5 mM 5-HMF)
From the text: (§1) An imaging assay utilizing automated microscopy and customized algorithms was used to detect sickled or normal (round shaped) RBCs. The assay is capable of discovering anti-sickling agents with physiologically relevant oxygen affinity. The assay uses native mouse or human RBCs, enabling one to identify a broader spectrum of agents and is not restricted to compounds that require direct interaction (e.g., with purified hemoglobin). Thus, in contrast to hemoglobin binding assays, this approach allows for the identification of additional classes of anti-sickling agents that modulate pathways affecting RBC sickling. Compounds resulting from the experiments are also useful for investigating SCD pathophysiology.
(§2) The imaging-based protocol that can distinguish sickled vs normal (round) phenotype of intact RBCs originating from genetically engineered mice expressing human hemoglobin genes (the HbSS Townes knock-in sickle mice), or 2) SCD patients. The imaging was conducted using a BioTek Cytation™ cell imaging multimode reader and software to detect sickled or normal round-shaped phenotype of RBCs with negative control (vehicle treatment) and a positive control, 5-hydroxymethylfurfural (5-HMF).

ss Mouse RBC = test: Imaging-based anti-sickling assay, ss mouse RBC; settings: read-out: Anti-sickling activity (EC50; μM) ss Mouse RBC
From the text: as §1, §2

Human RBC = test: Imaging-based anti-sickling assay, human RBC
From the text: as §1, §2

[1] = Homo sapiens; read-out: Anti-sickling activity (EC50; μM) Human RBC

Compound | EC50 (ss Mouse RBC) [µM] | EC50 (Human RBC; [1]) [µM] | also measured
CCC(C)NCC(O)Cn1c2ccc(Cl)cc2c2cc(Cl)ccc21 (stereo not shown) [SCAS2-A14, 1-(sec-butylamino)-3-(3,6-dichloro-9H-carbazol-9-yl) propan-2-ol] |  |  | Anti-sickling activity (%, normalized to positive control of 5 mM 5-HMF) (RBCs; 10 uM): 24.26%; Anti-sickling activity (%, normalized to positive control of 5 mM 5-HMF) (RBCs; 33 uM): 78.71%; Anti-sickling activity (%, normalized to positive control of 5 mM 5-HMF) (RBCs; 100 uM): 131.87%
Cc1cc(Cl)cc(-c2ccccc2)c1N1C(=O)C=CC1=O [HDYB-8, 1-(5-chloro-3-methyl-[1,1′-biphenyl]-2-yl)-1H-pyrrole-2,5-dione] | < 100 | < 100 | 
Cc1ccc(N2C(=O)C=CC2=O)nc1 [HDYB-16] | < 100 | < 100 | 
O=C1C=CC(=O)N1c1cccc(N2C(=O)C=CC2=O)c1 [HDYB-10] | 78 | 57 | 
COc1ccc(Cl)cc1NC(=O)Nc1nc2c(s1)CN(S(=O)(=O)C1CC1)CC2 [SCAS2_05, 1-(5-chloro-2-methoxyphenyl)-3-(5-(cyclopropylsulfonyl)-4,5,6,7-tetrahydrothiazolo[5,4-c]pyridin-2-yl)urea] |  |  | round shape morphology of RBCs (Human RBC; FIG. 2; 50 μM; compared to normoxic conditions and control drug 5 mM 5-HMF): fully restore round shape morphology; prevention of sickling of RBCs from sickle cells patients (Human RBC; FIG. 2; dose response): dose dependently prevent sickling; EC50 (RBCs): 2.25 µM
CC(C)CCNCC(O)Cn1c2ccc(Br)cc2c2cc(Br)ccc21 (stereo not shown) [SCAS2-A13, 1-(3,6-dibromo-9H-carbazol-9-yl)-3-(isopentylamino) propan-2-ol] |  |  | Anti-sickling activity (%, normalized to positive control of 5 mM 5-HMF) (RBCs; 10 uM): 71.04%; Anti-sickling activity (%, normalized to positive control of 5 mM 5-HMF) (RBCs; 33 uM): 90.158%; Anti-sickling activity (%, normalized to positive control of 5 mM 5-HMF) (RBCs; 100 uM): 35.39%
O=C1C=CC(=O)N1c1ccc(-c2ccccc2)cc1 [HDYB-23, 1-([1,1′-biphenyl]-4-yl)-1H-pyrrole-2,5-dione] | 68 |  | EC50 (Human RBC; Homo sapiens, read-out: Anti-sickling activity (EC50; μM) Human RBC): 52 µM
O=C1C=C(Nc2ccccc2)C(=O)N1c1ccccc1 [HDYB-11] | < 100 | < 100 | 
COc1ccc(Cl)cc1NC(=O)Nc1nc2c(s1)CN(S(=O)(=O)N(C)C)CC2 [SCAS2_01, 2-(3-(5-chloro-2-methoxyphenyl)ureido)-N,N-dimethyl-6,7-dihydrothiazolo[5,4-c]pyridine-5 (4H)-sulfonamide] |  |  | EC50 (RBCs): 1.1 µM
Nc1nc2ccc(S(=O)(=O)N3CCCCC3)cc2s1 [SCAS2_02, 6-(piperidin-1-ylsulfonyl)benzo[d]thiazol-2-amine] |  |  | EC50 (RBCs): 25.4 µM
O=C1C=CC(=O)N1c1cccnc1 [HDYB-15] | < 100 | < 100 | 
O=C1C=CC(=O)N1c1cnc2ccccc2c1 [HDYB-17] | < 100 | < 100 | 
CC(C)CCNCC(O)Cn1c2ccc(Cl)cc2c2cc(Cl)ccc21 (stereo not shown) [SCAS2-A2, 1-(3,6-dichloro-9H-carbazol-9-yl)-3-(isopentylamino) propan-2-ol] |  |  | Anti-sickling activity (%, normalized to positive control of 5 mM 5-HMF) (RBCs; 10 uM): 21.45%; Anti-sickling activity (%, normalized to positive control of 5 mM 5-HMF) (RBCs; 33 uM): 25.26%; Anti-sickling activity (%, normalized to positive control of 5 mM 5-HMF) (RBCs; 100 uM): 213.95%
O=C1C=CC(=O)N1CCCCN1C(=O)C=CC1=O [HDYB-9] | 29 | 78 | 
Cc1ccc(N2C(=O)C=CC2=O)cc1 [HDYB-21, 1-(p-tolyl)-1H-pyrrole-2,5-dione] | 37 | 32 | 
CC(C)(C)SCC(O)Cn1c2ccc(Cl)cc2c2cc(Cl)ccc21 (stereo not shown) [SCAS2_61, 1-(tert-butylthio)-3-(3,6-dichloro-9H-carbazol-9-yl) propan-2-ol] |  |  | EC50 (RBCs): 3.12 µM
O=C1C=CC(=O)N1c1ccc(Br)c(Cl)c1 [HDYB-14, 1-(4-bromo-3-chlorophenyl)-1H-pyrrole-2,5-dione] | 27 | 23 | 

Now from value to compound, other results behind:

EC50 (ss Mouse RBC) [µM] | EC50 (Human RBC; [1]) [µM] | Compound | also measured
11 | 14 | O=C1C=CC(=O)N1c1cccc(F)c1 [HDYB-24, 1-(3-fluorophenyl)-1H-pyrrole-2,5-dione] | 
22 | 26 | O=C1C(=O)N(Cc2ccc(C(F)(F)F)cc2)c2ccc(Cl)cc21 [HDYB-20] | 
20 | 12 | O=C1C=CC(=O)N1c1ccc(Br)cc1Cl [HDYB-6, 1-(4-bromo-2-chlorophenyl)-1H-pyrrole-2,5-dione] | 
16 | 12 | Cc1ccc(Cl)cc1N1C(=O)C=CC1=O [HDYB-12, 1-(5-chloro-2-methylphenyl)-1H-pyrrole-2,5-dione] | 
5 | 6.3 | O=C1C=CC(=O)N1c1cccc(Cl)c1 [HDYB-1, 1-(3-chlorophenyl)-1H-pyrrole-2,5-dione] | 
9 | 13 | O=C1C=CC(=O)N1c1ccc2c(c1)CCO2 [HDYB-26, 1-(2,3-dihydrobenzofuran-5-yl)-1H-pyrrole-2,5-dione] | 
15 | 19 | Cc1ccc(N2C(=O)C=CC2=O)cc1Cl [HDYB-2, 1-(3-chloro-4-methylphenyl)-1H-pyrrole-2,5-dione] | 
10 | 11 | O=C1OCc2ccc(N3C(=O)C=CC3=O)cc21 [HDYB-27, 1-(3-oxo-1,3-dihydroisobenzofuran-5-yl)-1H-pyrrole-2,5-dione] | 
10 | 12 | O=C1C=CC(=O)N1c1cc(Cl)c(N2C(=O)C=CC2=O)cc1Cl [HDYB-25, 1,1′-(2,5-dichloro-1,4-phenylene)bis(1H-pyrrole-2,5-dione)] | 
27 | 25 | O=C1C(=O)N(Cc2ccccc2)c2ccc(Cl)cc21 [HDYB-19] | 
13 | 41 | O=C1C=CC(=O)N1c1ccc(I)cc1 [HDYB-22, 1-(4-iodophenyl)-1H-pyrrole-2,5-dione] | 
21 | 17 | O=C1C=CC(=O)N1c1ccccc1 [HDYB-5, 1-phenyl-1H-pyrrole-2,5-dione] | 
12 | 12 | O=C1C=CC(=O)N1c1cccc(C(F)(F)F)c1 [HDYB-3, 1-(3-(trifluoromethyl)phenyl)-1H-pyrrole-2,5-dione] | 
